Reference: PubChem BioAssay AID330 (DTP/NCI, 2004)
“And” between values parts separate entries of the source, which are not always exact repeats. Equal entries are not always repeated. Toxic doses and inconclusive results are not listed. The calls were made as follows: active = survival T/C of 150% or more; inactive = T/C below 125% in these data.

System: P388 leukemia ip, CD2F1 mice, survival T/C
Test: NCI In Vivo Anticancer Drug Screen. Data for tumor model P388 Leukemia (intraperitoneal) in CD2F1 (CDF1) mice
Settings: endpoint: median survival time, higher = longer survival
Outline: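 Mice carrying the transplanted tumor received test compound or vehicle. Survival was recorded in each group, and the value is the treated-group measurement divided by that of the vehicle-treated control group.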

[1] = dose: 25.0 mg/kg/injection, schedule: Q01DX005 (ip), vehicle: Klucel (hydroxypropylcellulose) (HPC)
[2] = dose: 50.0 mg/kg/injection, schedule: Q01DX005 (ip), vehicle: Klucel (hydroxypropylcellulose) (HPC)
[3] = dose: 100.0 mg/kg/injection, schedule: Q01DX005 (ip), vehicle: Klucel (hydroxypropylcellulose) (HPC)
[4] = dose: 200.0 mg/kg/injection, schedule: Q01DX005 (ip), vehicle: Klucel (hydroxypropylcellulose) (HPC)
[5] = dose: 50.0 mg/kg/injection, schedule: Q01DX009 (ip), vehicle: Klucel (hydroxypropylcellulose) (HPC)
[6] = dose: 100.0 mg/kg/injection, schedule: Q01DX009 (ip), vehicle: Klucel (hydroxypropylcellulose) (HPC)
[7] = dose: 200.0 mg/kg/injection, schedule: Q01DX009 (ip), vehicle: Klucel (hydroxypropylcellulose) (HPC)
[8] = dose: 7.5 mg/kg/injection, schedule: Q01DX005 (ip), vehicle: saline
[9] = dose: 15.0 mg/kg/injection, schedule: Q01DX005 (ip), vehicle: saline
[10] = dose: 30.0 mg/kg/injection, schedule: Q01DX005 (ip), vehicle: saline
[11] = dose: 50.0 mg/kg/injection, schedule: Q01DX009 (ip), vehicle: saline with Tween-80
[12] = dose: 100.0 mg/kg/injection, schedule: Q01DX009 (ip), vehicle: saline with Tween-80
[13] = dose: 200.0 mg/kg/injection, schedule: Q01DX009 (ip), vehicle: saline with Tween-80
[14] = dose: 60.0 mg/kg/injection, schedule: Q01DX005 (ip), vehicle: saline with Tween-80
[15] = dose: 120.0 mg/kg/injection, schedule: Q01DX005 (ip), vehicle: saline with Tween-80
[16] = dose: 240.0 mg/kg/injection, schedule: Q01DX005 (ip), vehicle: saline with Tween-80

Measured: T/C

COC(=O)NC1(NC(=O)OC)NC(=O)c2cc(OC)c(OC)c(OC)c2N1
inactive: dose: 25.0 mg/kg/injection, schedule: Q01DX005 (ip), vehicle: saline + alcohol 102 % of control | dose: 50.0 mg/kg/injection, schedule: Q01DX005 (ip), vehicle: saline + alcohol 98 % of control | dose: 100.0 mg/kg/injection, schedule: Q01DX005 (ip), vehicle: saline + alcohol 100 % of control | dose: 200.0 mg/kg/injection, schedule: Q01DX005 (ip), vehicle: saline + alcohol 93 % of control

COC(=O)/C(C#N)=C/c1cc(OC)c(O)cc1Br
inactive: [1] 104 % of control | [2] 104 % of control and 88 % of control | [3] 105 % of control | [4] 100 % of control

Cln1c2c(c3ccccc31)CN(Cc1ccccc1)CC2
inactive: [5] 105 % of control | [6] 106 % of control | [7] 97 % of control

CC(C)(C)n1nnnc1Cl
inactive: [5] 107 % of control | [6] 102 % of control | [7] 107 % of control

CC(=O)OCC12C(=O)C(O)C(C)C3(CC(c4ccoc4)OC3OC(C)=O)C1CCCC21CO1 (stereo unspecified)
inactive: dose: 15.0 mg/kg/injection, schedule: Q01DX005 (ip), vehicle: Klucel (hydroxypropylcellulose) (HPC) 105 % of control | dose: 30.0 mg/kg/injection, schedule: Q01DX005 (ip), vehicle: Klucel (hydroxypropylcellulose) (HPC) 105 % of control | dose: 60.0 mg/kg/injection, schedule: Q01DX005 (ip), vehicle: Klucel (hydroxypropylcellulose) (HPC) 100 % of control

CC(NC(=O)C(NC(=O)c1ccc[n+](Cc2ccccc2)c1)C(C)C)C(N)=O (stereo unspecified)
inactive: [8] 109 % of control | [9] 104 % of control | [10] 98 % of control

CC(/C=N\NC(N)=O)=N/N=C(N)N
inactive: dose: 100.0 mg/kg/injection, schedule: Q04DX003 (ip), vehicle: saline 94 % of control | dose: 200.0 mg/kg/injection, schedule: Q04DX003 (ip), vehicle: saline 94 % of control | dose: 400.0 mg/kg/injection, schedule: Q04DX003 (ip), vehicle: saline 92 % of control

Oc1cc2c3c(c1)c1cc4c(cc1c[n+]3CC2)OCO4
active: dose: 6.25 mg/kg/injection, schedule: Q01DX009 (ip), vehicle: other 151 % of control | dose: 12.5 mg/kg/injection, schedule: Q01DX009 (ip), vehicle: other 155 % of control | dose: 25.0 mg/kg/injection, schedule: Q01DX009 (ip), vehicle: other 164 % of control
inactive: dose: 10.0 mg/kg/injection, schedule: Q01DX005 (ip), vehicle: acid diluted with saline 119 % of control | dose: 20.0 mg/kg/injection, schedule: Q01DX005 (ip), vehicle: acid diluted with saline 119 % of control

CCOC(=O)c1ccc(S(C)(=O)=O)cc1
inactive: dose: 25.0 mg/kg/injection, schedule: Q01DX009 (ip), vehicle: saline with Tween-80 104 % of control | [11] 95 % of control | [12] 100 % of control | [13] 100 % of control

C/C(=N/N=C(N)N)c1cn(C(=N)N)nc1C
inactive: [8] 100 % of control and 101 % of control | [9] 109 % of control and 95 % of control | [10] 101 % of control and 95 % of control | dose: 60.0 mg/kg/injection, schedule: Q01DX005 (ip), vehicle: saline 101 % of control and 107 % of control | dose: 120.0 mg/kg/injection, schedule: Q01DX005 (ip), vehicle: Klucel (hydroxypropylcellulose) (HPC) 99 % of control | dose: 240.0 mg/kg/injection, schedule: Q01DX005 (ip), vehicle: Klucel (hydroxypropylcellulose) (HPC) 117 % of control

CCCCCCCCCCCC[N+]1(CC)CCOCC1
inactive: dose: 3.12 mg/kg/injection, schedule: Q01DX009 (ip), vehicle: saline 106 % of control | dose: 6.25 mg/kg/injection, schedule: Q01DX009 (ip), vehicle: saline 101 % of control | dose: 12.5 mg/kg/injection, schedule: Q01DX009 (ip), vehicle: saline 101 % of control

[Mn+2].[O-]c1ccccc1/C=N/c1ccccn1.[O-]c1ccccc1/C=N/c1ccccn1.[OH3+].[OH3+]
inactive: dose: 50.0 mg/kg/injection, schedule: Q04DX002 (ip), vehicle: saline with Tween-80 97 % of control | dose: 100.0 mg/kg/injection, schedule: Q04DX002 (ip), vehicle: saline with Tween-80 96 % of control | dose: 200.0 mg/kg/injection, schedule: Q04DX002 (ip), vehicle: saline with Tween-80 94 % of control

CC1c2c(cc(OC(=O)c3cccc(S(=O)(=O)F)c3)nc2OC(=O)c2cccc(S(=O)(=O)F)c2)C(=O)N1Cc1ccccc1 (stereo unspecified)
inactive: dose: 6.25 mg/kg/injection, schedule: Q01DX009 (ip), vehicle: Klucel (hydroxypropylcellulose) (HPC) 97 % of control | dose: 12.5 mg/kg/injection, schedule: Q01DX009 (ip), vehicle: Klucel (hydroxypropylcellulose) (HPC) 88 % of control | dose: 25.0 mg/kg/injection, schedule: Q01DX009 (ip), vehicle: Klucel (hydroxypropylcellulose) (HPC) 87 % of control

Cc1ccc2c(c1)-c1nc3nnnn3nc1C(C)(C)O2
inactive: [14] 92 % of control | [15] 95 % of control | [16] 98 % of control

CSc1ccccc1N1C(=O)CSC1=S
inactive: [5] 108 % of control | [6] 96 % of control | [7] 89 % of control

CCC(O)C1Sc2ccccc2N1C (stereo unspecified)
inactive: [14] 104 % of control | [15] 101 % of control | [16] 106 % of control

O=C(CC(=O)Nc1ccccc1)Cc1ccccc1
inactive: [5] 102 % of control | [6] 97 % of control | [7] 99 % of control

CC[C@@]1(O)C(=O)OCc2c1cc1n(c2=O)Cc2cc3c(N)cccc3nc2-1
active: dose: 0.12 mg/kg/injection, schedule: Q01DX005 (ip), vehicle: saline with Tween-80 153 % of control | dose: 0.25 mg/kg/injection, schedule: Q01DX005 (ip), vehicle: saline with Tween-80 153 % of control | dose: 0.5 mg/kg/injection, schedule: Q01DX005 (ip), vehicle: saline with Tween-80 180 % of control and 204 % of control | dose: 1.0 mg/kg/injection, schedule: Q01DX005 (ip), vehicle: saline with Tween-80 180 % of control

CCOc1ccc(N2C(N)=NC(N)=NC2(C)C)cc1
inactive: dose: 12.5 mg/kg/injection, schedule: Q01DX005 (ip), vehicle: saline with Tween-80 99 % of control | dose: 25.0 mg/kg/injection, schedule: Q01DX005 (ip), vehicle: saline with Tween-80 101 % of control | dose: 50.0 mg/kg/injection, schedule: Q01DX005 (ip), vehicle: saline with Tween-80 101 % of control and 108 % of control

CC1=C(c2ccco2)C(c2ccco2)OC1=O (stereo unspecified)
inactive: [14] 102 % of control | [15] 103 % of control | [16] 103 % of control

CC(C)C(NSC(=O)C1CCCN1Sc1ccc([N+](=O)[O-])cc1[N+](=O)[O-])C(=O)OCc1ccccc1 (stereo unspecified)
inactive: [1] 92 % of control | [2] 94 % of control | [3] 86 % of control and 93 % of control | [4] 93 % of control

Nc1ccc(Nc2c3ccccc3nc3ccccc23)cc1
inactive: dose: 6.25 mg/kg/injection, schedule: Q04DX003 (ip), vehicle: saline 104 % of control | dose: 12.5 mg/kg/injection, schedule: Q04DX003 (ip), vehicle: saline 100 % of control | dose: 25.0 mg/kg/injection, schedule: Q04DX003 (ip), vehicle: saline 121 % of control

CCOC(=O)CCN(CCC(=O)OCC)c1ccccn1
inactive: [2] 105 % of control | [3] 99 % of control | [4] 101 % of control

N#CC12C3C4C5C3C1n1c(=O)n(-c3ccccc3)c(=O)n1C5C42 (stereo unspecified)
inactive: dose: 100.0 mg/kg/injection, schedule: Q04DX003 (ip), vehicle: Klucel (hydroxypropylcellulose) (HPC) 106 % of control | dose: 200.0 mg/kg/injection, schedule: Q04DX003 (ip), vehicle: Klucel (hydroxypropylcellulose) (HPC) 106 % of control | dose: 400.0 mg/kg/injection, schedule: Q04DX003 (ip), vehicle: Klucel (hydroxypropylcellulose) (HPC) 107 % of control

C=C([Se]c1ccccc1)C(C)(C)C
inactive: [11] 114 % of control | [12] 119 % of control

Cc1ccc(S(=O)(=O)OCCC(C)OS(=O)(=O)c2ccc(C)cc2)cc1 (stereo unspecified)
inactive: [14] 100 % of control | [15] 100 % of control | [16] 101 % of control

CCOC(=O)c1ccc(NCCC(C)=O)cc1
inactive: [11] 91 % of control | [12] 86 % of control | [13] 91 % of control | dose: 400.0 mg/kg/injection, schedule: Q01DX009 (ip), vehicle: saline with Tween-80 95 % of control
